Assay results taken from PubChem BioAssay AID2060497 (Molecular Pharmacology Branch, DTP, NCI, 2025).

Test system: 317291-083-R-J1-PDC complex spheroids, viability
Experiment: Anticancer human tumor 317291-083-R-J1-PDC patient-derived soft tissue sarcoma cell line growth inhibition [GQUAD]
Details: for IC50: curve of first compound; for viability, T/C: stronger effect = lower value; active = viability on the fitted dose curve at most 10% of control; inactive = the rest
Summary of the method: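 Viability of tumor cells grown as complex spheroids with endothelial and stromal cells, exposed to drug combinations. Top concentration at or near clinical Cmax (else 10 microM), diluted in half-log increments.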

[1] = second compound 0.0316 µM, first compound 0.0316 µM
[2] = second compound 0.0316 µM, first compound 0.1 µM
[3] = second compound 0.0316 µM, first compound 0.316 µM
[4] = second compound 0.0316 µM, first compound 1 µM
[5] = second compound 0.0316 µM, first compound 3.16 µM
[6] = second compound 0.0316 µM, first compound 10 µM
[7] = second compound 0.1 µM, first compound 0.0316 µM
[8] = second compound 0.1 µM, first compound 0.1 µM
[9] = second compound 0.1 µM, first compound 0.316 µM
[10] = second compound 0.1 µM, first compound 1 µM
[11] = second compound 0.1 µM, first compound 3.16 µM
[12] = second compound 0.1 µM, first compound 10 µM
[13] = second compound 0.316 µM, first compound 0.0316 µM
[14] = second compound 0.316 µM, first compound 0.1 µM
[15] = second compound 0.316 µM, first compound 0.316 µM
[16] = second compound 0.316 µM, first compound 1 µM
[17] = second compound 0.316 µM, first compound 3.16 µM
[18] = second compound 0.316 µM, first compound 10 µM
[19] = second compound 1 µM, first compound 0.0316 µM
[20] = second compound 1 µM, first compound 0.1 µM
[21] = second compound 1 µM, first compound 0.316 µM
[22] = second compound 1 µM, first compound 1 µM
[23] = second compound 1 µM, first compound 3.16 µM
[24] = second compound 1 µM, first compound 10 µM
[25] = second compound 3.16 µM, first compound 0.0316 µM
[26] = second compound 3.16 µM, first compound 0.1 µM
[27] = second compound 3.16 µM, first compound 0.316 µM
[28] = second compound 3.16 µM, first compound 1 µM
[29] = second compound 3.16 µM, first compound 3.16 µM
[30] = second compound 3.16 µM, first compound 10 µM
[31] = second compound 10 µM, first compound 0.0316 µM
[32] = second compound 10 µM, first compound 0.1 µM
[33] = second compound 10 µM, first compound 0.316 µM
[34] = second compound 10 µM, first compound 1 µM
[35] = second compound 10 µM, first compound 3.16 µM
[36] = second compound 10 µM, first compound 10 µM
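Also: spheroids exposed to compounds for one week before readout.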
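For viability, T/C in this document: percent viability relative to DMSO vehicle wells taken as 100%.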

CC(C)n1c(=O)n(C)c2cnc3cc(F)c(-c4ccc(OCCCN5CCCCC5)nc4)cc3c21 + Cc1[nH]c2ccc(F)cc2c1-c1nc2c3cccnc3c3ncccc3c2[nH]1
7880 nM: IC50 (second compound 3.16 µM)
inactive: viability, T/C [1] 104% | viability, T/C [2] 111% | viability, T/C [3] 92.5% | viability, T/C [4] 97.1% | viability, T/C [5] 86.2% | viability, T/C [6] 50.5% | viability, T/C [7] 104% | viability, T/C [8] 101% | viability, T/C [9] 96.3% | viability, T/C [10] 96.7% | viability, T/C [11] 92.9% | viability, T/C [12] 43.3% | viability, T/C [13] 88.6% | viability, T/C [14] 103% | viability, T/C [15] 105% | viability, T/C [16] 85% | viability, T/C [17] 106% | viability, T/C [18] 42.9% | viability, T/C [19] 114% | viability, T/C [20] 108% | viability, T/C [21] 93.7% | viability, T/C [22] 96.3% | viability, T/C [23] 92.7% | viability, T/C [24] 53.5% | viability, T/C [25] 80.7% | viability, T/C [26] 103% | viability, T/C [27] 97.6% | viability, T/C [28] 72.4% | viability, T/C [29] 93.8% | viability, T/C [30] 39.7% | viability, T/C [31] 99.2% | viability, T/C [32] 107% | viability, T/C [33] 83.5% | viability, T/C [34] 92.5% | viability, T/C [35] 85.2% | viability, T/C [36] 50%
8620 nM: IC50 (second compound 0.316 µM)
8610 nM: IC50 (second compound 0.1 µM)
> 10000 nM: IC50 (second compound 0.0316 µM) | IC50 (second compound 1 µM) | IC50 (second compound 10 µM)

COc1cccc2c1C(=O)c1c(O)c3c(c(O)c1C2=O)CC(O)(C(=O)CO)CC3OC1CC(N)C(O)C(C)O1 (stereo unspecified) + Cc1[nH]c2ccc(F)cc2c1-c1nc2c3cccnc3c3ncccc3c2[nH]1
77.4 nM: IC50 (second compound 0.316 µM)
active: viability, T/C [4] 9.79% | viability, T/C [5] 0.88% | viability, T/C [6] 4.17% | viability, T/C [10] 8.91% | viability, T/C [11] 1.29% | viability, T/C [12] 2.78% | viability, T/C [16] 13.5% | viability, T/C [17] 1.55% | viability, T/C [18] 3.24% | viability, T/C [22] 11.1% | viability, T/C [23] 1.17% | viability, T/C [24] 1.78% | viability, T/C [28] 16.5% | viability, T/C [29] 1.5% | viability, T/C [30] 1.98% | viability, T/C [34] 8.13% | viability, T/C [35] 1.49% | viability, T/C [36] 2.3%
65.5 nM: IC50 (second compound 3.16 µM)
inactive: viability, T/C [1] 112% | viability, T/C [2] 31.8% | viability, T/C [3] 21.9% | viability, T/C [7] 80.3% | viability, T/C [8] 35.4% | viability, T/C [9] 21.6% | viability, T/C [13] 88.3% | viability, T/C [14] 36.5% | viability, T/C [15] 19.7% | viability, T/C [19] 89.8% | viability, T/C [20] 60.3% | viability, T/C [21] 21.3% | viability, T/C [25] 77% | viability, T/C [26] 31.2% | viability, T/C [27] 18% | viability, T/C [31] 68.3% | viability, T/C [32] 39.3% | viability, T/C [33] 16.9%
65.2 nM: IC50 (second compound 10 µM)
81 nM: IC50 (second compound 0.0316 µM)
72.1 nM: IC50 (second compound 0.1 µM)
135 nM: IC50 (second compound 1 µM)

O=c1[nH]cc(F)c(=O)[nH]1 + Cc1cnc(CNC(=O)c2c(=O)c3ccc(N4CCCN(C)CC4)nc3n3c2sc2ccccc23)cn1
< 31.6 nM: IC50 (second compound 1 µM) | IC50 (second compound 3.16 µM) | IC50 (second compound 10 µM)
526 nM: IC50 (second compound 0.316 µM)
inactive: viability, T/C [1] 101% | viability, T/C [2] 96.3% | viability, T/C [3] 103% | viability, T/C [4] 64.6% | viability, T/C [5] 44.3% | viability, T/C [6] 24.6% | viability, T/C [7] 68.2% | viability, T/C [8] 69.3% | viability, T/C [9] 60.9% | viability, T/C [10] 79.8% | viability, T/C [11] 31.3% | viability, T/C [12] 24.7% | viability, T/C [13] 51.8% | viability, T/C [14] 50.6% | viability, T/C [15] 71.5% | viability, T/C [16] 40% | viability, T/C [17] 34.7% | viability, T/C [18] 23.3% | viability, T/C [19] 35.2% | viability, T/C [20] 25.6% | viability, T/C [21] 31% | viability, T/C [22] 32.7% | viability, T/C [23] 23.6% | viability, T/C [24] 22.5% | viability, T/C [25] 31.2% | viability, T/C [26] 29.8% | viability, T/C [27] 25.6% | viability, T/C [28] 49.5% | viability, T/C [29] 22.6% | viability, T/C [30] 15.1% | viability, T/C [31] 21.4% | viability, T/C [32] 28% | viability, T/C [33] 14.6% | viability, T/C [34] 26.5% | viability, T/C [35] 25.7% | viability, T/C [36] 16.4%
1800 nM: IC50 (second compound 0.1 µM)
2110 nM: IC50 (second compound 0.0316 µM)
